In brackets after ≈: the same amount, converted by molar mass. Like-named read-outs stand apart in the source and are kept apart here.
Tests used:
P. berghei ANKA strain [1] = experiment: Onset of action and recrudescence experiment, single 100 mg/kg po; format: in vivo, Plasmodium berghei; conditions: single 100 mg/kg po (SSV) on day +3 post-infection; recrudescence = >5% parasitemia; followed up to 60 days; groups of five
Method: The onset of drug action was determined after a single fixed dose of 100 mg/kg (SSV vehicle) po to groups of five animals on day +3 post-infection (day 0).
(§1) Moro NMRI male mice (Fu Albino specific pathogen free) weighing 18±2 g were infected intravenously (i.v.) with 2×10^7 P. berghei ANKA strain-infected erythrocytes from donor mice on day 0 of the experiment. From donor mice with circa 30% parasitemia, heparinized blood was taken and diluted in physiological saline to 10^8 parasitized erythrocytes per ml. An aliquot (0.2 ml) of this suspension was injected i.v. into experimental and control groups of mice. […] Throughout the experiments, mice were kept in groups of three or five animals in Makrolon type II cages in an air-conditioned animal room at 22 to 23° C.

[2] = test system: chloroquine-resistant K1 strain of P. falciparum; experiment: In vitro antimalarial semiautomated microdilution assay ([3H]-hypoxanthine incorporation), K1 strain; format: cell-based, Plasmodium falciparum; conditions: Plasmodium falciparum
Procedure, shortened: (§2)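 Logit regression analysis yields the fifty percent inhibitory concentration. Compounds are tested by semiautomated microdilution on intraerythrocytic parasites drawn from asynchronous stock cultures, measuring [3H]-hypoxanthine incorporation.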

[3] = test system: chloroquine-sensitive NF54 strain of P. falciparum; experiment: In vitro antimalarial semiautomated microdilution assay ([3H]-hypoxanthine incorporation), NF54 strain; format: cell-based, Plasmodium falciparum; conditions: Plasmodium falciparum
Procedure, shortened: as §2

[4] = test system: ANKA strain of P. berghei; experiment: Single dose STI in vivo screen in infected mice; set-up: species or system Plasmodium berghei; conditions: for Survival (days) 10 mg/kg po: single 10 mg/kg po in 3% ethanol and 7% Tween 80; for Survival (days) 10 mg/kg po / Survival (days) 10 mg/kg SSV po / Survival (days) 10 mg/kg sc: untreated 6-7 days; for Activity (%) 10 mg/kg po: single 10 mg/kg po in 3% ethanol and 7% Tween 80 on day 1 post-infection; for Activity (%) 10 mg/kg po / Activity (%) 10 mg/kg SSV po / Activity (%) 10 mg/kg sc: percent reduction in parasitemia on day 3; for Survival (days) 10 mg/kg SSV po: single 10 mg/kg po in SSV; for Activity (%) 10 mg/kg SSV po: single 10 mg/kg po in standard suspending vehicle (SSV) on day 1 post-infection; for Survival (days) 10 mg/kg sc: single 10 mg/kg sc in 3% ethanol and 7% Tween 80; for Activity (%) 10 mg/kg sc: single 10 mg/kg sc in 3% ethanol and 7% Tween 80 on day 1 post-infection
[5] = test system: Schistosoma mansoni adult worms (49-day-old); experiment: Effect on adult schistosomes (49-day-old) in infected mice; format: in vivo; conditions: single 400 mg/kg per os; for % reduction of adult worms growth at day 49 after per os application of 400 mg/kg, TWR (%): 49-day-old adults, total worm reduction rate; for Adult worms day 49, per os 400 mg/kg, DEAD WORM (%): percentage of dead worm in the liver
Method: Mice were infected with 100 Schistosoma mansoni cercariae on day 49 post-treatment. Each group was treated per os with OZ compounds at single doses of 200, 400, and 600 mg/kg. Untreated mice served as the control. All groups were killed 4 weeks after treatment and the liver and intestine were removed and separated. The liver and intestine were compressed and alive male and female worms could be seen and counted.

[6] = test system: ANKA strain of Plasmodium berghei; experiment: Single dose ED50/ED90/ED99 determination in infected mice; format: in vivo; conditions: single dose po in SSV on day 1 post-infection, parasitemia day 3, nonlinear fitting; for ED50: Plasmodium berghei, po
Method: In the single dose ED50/ED98/ED99 determinations, Moro SPF or NMRI mice (group of three) infected with the ANKA strain of Plasmodium berghei were treated on day one post-infection. […] The SSV consists of 0.5% w/v CMC, 0.5% v/v benzyl alcohol, 0.4% v/v Tween 80, and 0.9% w/v sodium chloride in water. Antimalarial activity was measured by percent reduction in parasitemia on day three post-infection. The ED50/ED90 values were calculated by nonlinear fitting.
The ED50, ED90, and ED99 values were calculated by non-linear fitting with statistical program and were expressed in mg/kg.

[7] = Pharmacokinetics in rats (IV and oral dosing); conditions: rat, in vivo
Description: (§3) Artesunate is listed as a reference compound.

[8] = Pharmacokinetics in dogs (IV and oral dosing); conditions: in vivo, dog; for bioavailability: some values marked (V), not defined
Description: as §3

P. berghei ANKA strain [9] = experiment: Prophylactic activity, single 100 mg/kg po at various times before infection; format: in vivo, Plasmodium berghei
Method: as §1
Prophylactic activities of the compounds were compared after administering po single dose of 100 mg/kg to different groups of five animals at various times before infection. All groups including an untreated control group, were then infected at the same time. Parasitemia was determined for each animal on day 3 post-infection, and percent of reduction of the level of parasitemia compared to levels for animals given no drug is determined.

[10] = K1, 72 h, read-out: IC50 (ng/ml) K1, chloroquine-resistant K1 strain, 72 h incubation
[11] = NF54, 72 h, read-out: IC50 (ng/ml) NF54, chloroquine-sensitive NF54 strain, 72 h incubation

CCO[C@H]1O[C@@H]2O[C@@]3(C)CC[C@H]4[C@H](C)CC[C@@H]([C@H]1C)[C@@]24OO3 [Arteether, arteether, reference compound]
Time of Recrudescence (P. berghei ANKA strain [1]): 11.4 days

c1ccc(C[C@H]2CC[C@]3(CC2)OOC2(O3)C3CC4CC(C3)CC2C4)cc1 (stereo partly shown) [OZ156]
IC50 [2, 10]: 2.1 ng/mL (≈ 5.92 nM)
IC50 [3, 11]: 2.1 ng/mL (≈ 5.92 nM)
Survival (days) 10 mg/kg po [4]: 17.0 days
Activity (%) 10 mg/kg po [4]: 99.98%
Survival (days) 10 mg/kg SSV po [4]: 10.3 days
Activity (%) 10 mg/kg SSV po [4]: 98.8%
Survival (days) 10 mg/kg sc [4]: 19.7 days
Activity (%) 10 mg/kg sc [4]: 99.98%
Time of Recrudescence (P. berghei ANKA strain [1]): > 60 days
% reduction of adult worms growth at day 49 after per os application of 400 mg/kg, TWR (%) [5]: 0%
Adult worms day 49, per os 400 mg/kg, DEAD WORM (%) [5]: 6%
ED50 [6]: 1.3 mg/kg
ED90 [6]: 2.6 mg/kg
ED99 [6]: 4.7 mg/kg

O=C(C[C@H]1CC[C@]2(CC1)OOC1(O2)C2CC3CC(C2)CC1C3)NO (stereo partly shown) [OZ175]
IC50 [2, 10]: 1.4 ng/mL (≈ 4.15 nM)
IC50 [3, 11]: 2 ng/mL (≈ 5.93 nM)
Survival (days) 10 mg/kg po [4]: 10.0 days
Activity (%) 10 mg/kg po [4]: 99.1%
Survival (days) 10 mg/kg SSV po [4]: 12.3 days
Activity (%) 10 mg/kg SSV po [4]: 97%
Survival (days) 10 mg/kg sc [4]: 8.7 days
Activity (%) 10 mg/kg sc [4]: 92%
Time of Recrudescence (P. berghei ANKA strain [1]): 13.0 days
ED50 [6]: 3.5 mg/kg
ED90 [6]: 6.2 mg/kg
ED99 [6]: 9.9 mg/kg

NC(=O)CNC[C@H]1CC[C@]2(CC1)OOC1(O2)C2CC3CC(C2)CC1C3 (stereo partly shown) [OZ256]
IC50 ([2]; chloroquine-resistant K1 strain, 72 h incubation, read-out: IC50 (ng/ml) K1): 0.3 ng/mL (≈ 0.856 nM)
IC50 ([3]; chloroquine-sensitive NF54 strain, 72 h incubation, read-out: IC50 (ng/ml) NF54): 0.2 ng/mL (≈ 0.571 nM)
Survival (days) 10 mg/kg po [4]: 8.7 days
Activity (%) 10 mg/kg po [4]: 99.70%
Survival (days) 10 mg/kg SSV po [4]: 8.7 days
Activity (%) 10 mg/kg SSV po [4]: 99.67%
Survival (days) 10 mg/kg sc [4]: 9.7 days
Activity (%) 10 mg/kg sc [4]: 99.95%
% reduction of adult worms growth at day 49 after per os application of 400 mg/kg, TWR (%) [5]: 10%
Adult worms day 49, per os 400 mg/kg, DEAD WORM (%) [5]: 19%
half-life ([7]; iv, 10 mg/kg): 1.57 h
bioavailability ([7]; po, 10 mg/kg): 18.6%
bioavailability ([7]; po, 25 mg/kg): 51.9%
half-life ([7]; po, 25 mg/kg): 1.22 h
half-life ([8]; IV 10 mg/kg): 1.42 h
half-life ([8]; oral 10 mg/kg): 1.38 h
bioavailability ([8]; oral 10 mg/kg, read-out: Dog Oral Bioavailability 10 mg/kg): 42%
bioavailability ([8]; oral 25 mg/kg, read-out: Dog Oral Bioavailability 25 mg/kg): 38.3%
Prophylactic Activity (%) 72 h (P. berghei ANKA strain [9]; po, 100 mg/kg): 13%
Prophylactic Activity (%) 24 h (P. berghei ANKA strain [9]; single 100 mg/kg po 24 h before infection, parasitemia reduction on day 3 post-infection): 82%
Prophylactic Activity (%) 48 h (P. berghei ANKA strain [9]; single 100 mg/kg po 48 h before infection, parasitemia reduction on day 3 post-infection): 29%
Prophylactic Activity (%) 0 h (P. berghei ANKA strain [9]; single 100 mg/kg po at 0 h, parasitemia reduction on day 3 post-infection): 100%

— patent US6825230B2, “Spiro and dispiro 1,2,4-trixolane antimalarials” (Medicines for Malaria Venture MMV, priority 2002, dated 2004)
